Laboratory results: ChEMBL document CHEMBL1133482, “1-Phenyl-5-pyrazolyl ureas: potent and selective p38 kinase inhibitors” (Bioorg Med Chem Lett, 2000)
Values after ≈ are worked out from the molar mass of the structure shown.

Assay: Aqueous solubility at pH 7.5
Format: physicochemical

CC(C)(C)c1cc(NC(=O)Nc2cccc(Cl)c2Cl)n(-c2cccc(F)c2)n1
solubility: 17 µg/mL (≈ 40.4 µM)

CC(C)(C)c1cc(NC(=O)Nc2cccc(Cl)c2Cl)n(-c2ccc(S(C)(=O)=O)cc2)n1
solubility: 79 µg/mL (≈ 164 µM)

CC(C)(C)c1cc(NC(=O)Nc2cccc(Cl)c2Cl)n(-c2ccc([N+](=O)[O-])cc2)n1
solubility: 66 µg/mL (≈ 147 µM)

CC(C)(C)c1cc(NC(=O)Nc2cccc(Cl)c2Cl)n(-c2ccccc2)n1
solubility: 24 µg/mL (≈ 59.5 µM)

COc1cccc(-n2nc(C(C)(C)C)cc2NC(=O)Nc2cccc(Cl)c2Cl)c1
solubility: 46 µg/mL (≈ 106 µM)

CC(C)(C)c1cc(NC(=O)Nc2cccc(Cl)c2Cl)n(-c2cccc(N)c2)n1
solubility: 594 µg/mL (≈ 1420 µM)

CC(C)(C)c1cc(NC(=O)Nc2cccc(Cl)c2Cl)n(-c2cccc([N+](=O)[O-])c2)n1
solubility: 18 µg/mL (≈ 40.2 µM)
